These results are taken from ChEMBL document CHEMBL1201862, “PubChem BioAssay data set” (2004).

Among the test systems are 786-0; A498; CAKI-1; HOP-92; LOX IMVI; M14; MCF7; MDA-N; NCI-H23; OVCAR-3; PC-3; SK-OV-3; SR; SW-620; TK-10; U-251; UO-31.
Holding throughout (test): NCI tumour cell line growth inhibition, 48 h

SMILES strings stand for the structures.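 A five-concentration, 48-hour dose response in 96-well plates underlies each endpoint, interpolated linearly between surrounding concentrations. Here, GI50 denotes the concentration required for 50% inhibition of growth.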 Calls of active or inactive are those of the source. No stated cut-off is given here; in the data, active = GI50 up to about 1.1 µM and inactive = higher. Where only a bound is given, the exact number is not on record here.

For `CN1CCN([C@H]2C[C@H]3[C@@H]4CC=C5C[C@@H](O)CC[C@]5(C)[C@H]4CC[C@]3(C)[C@H]2O)CC1`, the GI50 in the assay with 786-0 was 17.8 µM (inactive); in the assay on A498, > 100 µM (inactive); in the assay with CAKI-1, > 100 µM (inactive); in the assay on HOP-92 it was > 100 µM (inactive); in the assay on LOX IMVI it was > 43.4 µM (inactive); in the assay on M14 it was 17.5 µM (inactive). The GI50 with MCF7 was > 45.6 µM (inactive); with MDA-N, 19 µM (inactive); in the assay on NCI-H23 it was > 100 µM (inactive); in the assay on OVCAR-3 it was > 42.1 µM (inactive); with PC-3, > 51.2 µM (inactive); with SK-OV-3, > 100 µM (inactive). Moreover, the GI50 is 25.8 µM (inactive) in the assay on SR; 20.7 µM (inactive) in the assay on SW-620; > 100 µM (inactive) in the assay on TK-10; 17.1 µM (inactive) with U-251; > 100 µM (inactive) with UO-31.
As for `CC(C)(C)OC(=O)NC(Cc1ccc(OCc2ccccc2)cn1)C(=O)NCc1ccccc1` (stereo unspecified), the GI50 with 786-0 is 27.1 µM (inactive); with A498, 32.1 µM (inactive); in the assay with CAKI-1, 28.6 µM (inactive); in the assay on HOP-92, 20 µM (inactive); with LOX IMVI, 19.1 µM (inactive); in the assay with M14, 25.8 µM (inactive). The GI50 in the assay with MCF7 was 29.5 µM (inactive); in the assay with MDA-N it was 19.8 µM (inactive); in the assay with NCI-H23 it was 17 µM (inactive); in the assay with OVCAR-3, 19.3 µM (inactive); with PC-3, 20.4 µM (inactive); with SK-OV-3, 22.1 µM (inactive). The GI50 in the assay on SR is 10.1 µM (inactive); with SW-620, 31.3 µM (inactive); with TK-10, 30.3 µM (inactive); with U-251, 26.1 µM (inactive); in the assay with UO-31, 34.7 µM (inactive).
As for `O=C1C(Cl)=C(OCCCl)C(=O)c2c(O)ccc(O)c21`, the GI50 was 6.58 µM (inactive) in the assay with 786-0; 20.5 µM (inactive) with A498; 2.38 µM (inactive) in the assay on CAKI-1; 1.57 µM (inactive) with HOP-92; 4.32 µM (inactive) in the assay on LOX IMVI; 1.88 µM (inactive) with M14. Moreover, the GI50 with MCF7 is 2.06 µM (inactive); in the assay on MDA-N it was 2.91 µM (inactive); in the assay with NCI-H23 it was 5.75 µM (inactive); in the assay on OVCAR-3, 2.96 µM (inactive); in the assay on PC-3, 13.2 µM (inactive); in the assay on SK-OV-3, 18.2 µM (inactive). Moreover, the GI50 in the assay with SR is 0.113 µM (active); with SW-620 it was 2.05 µM (inactive); in the assay on TK-10 it was 2.6 µM (inactive); in the assay with U-251 it was 14.3 µM (inactive); in the assay on UO-31, 5.36 µM (inactive).
With `O=C1N(CN2CCOCC2)CN(CN2CCOCC2)C(=O)N1Cc1ccccc1`, the GI50 with 786-0 was 26.6 µM (inactive); with A498, > 100 µM (inactive); in the assay with CAKI-1, 29.2 µM (inactive); with HOP-92, 25.8 µM (inactive); with LOX IMVI, 15.5 µM (inactive); in the assay with M14, 19.2 µM (inactive). Further, the GI50 is 29.4 µM (inactive) in the assay with MCF7; 18.2 µM (inactive) in the assay with MDA-N; 17.9 µM (inactive) in the assay with NCI-H23; 23.9 µM (inactive) with OVCAR-3; 29.9 µM (inactive) in the assay with PC-3; > 100 µM (inactive) with SK-OV-3. Besides, the GI50 with SR was 18.8 µM (inactive); in the assay on SW-620, 22 µM (inactive); in the assay with TK-10, > 100 µM (inactive); in the assay with U-251, 23.3 µM (inactive); with UO-31, 28.1 µM (inactive).
In the case of `CC[C@]1(Cc2ccc(OC)c(OC)c2)C=[N+]([O-])O[C@H](OCc2ccccc2)[C@@H]1OC(C)=O`, the GI50 was 36.2 µM (inactive) in the assay on 786-0; 32.7 µM (inactive) with A498; 24.8 µM (inactive) with CAKI-1; 23.9 µM (inactive) in the assay on HOP-92; 17.5 µM (inactive) in the assay on LOX IMVI; 33.5 µM (inactive) in the assay on M14. The GI50 in the assay with MCF7 is 29.7 µM (inactive); in the assay on MDA-N, 36.1 µM (inactive); with NCI-H23 it was 34.9 µM (inactive); in the assay with OVCAR-3 it was 15.8 µM (inactive); with PC-3 it was 20.5 µM (inactive); in the assay with SK-OV-3, 48.9 µM (inactive). The GI50 in the assay with SR is 24.3 µM (inactive); with SW-620, 32.8 µM (inactive); in the assay on TK-10 it was 41.7 µM (inactive); in the assay with U-251, 32.3 µM (inactive); in the assay on UO-31, 32.1 µM (inactive).
Consider `CCCC(=O)Nc1cc(C(=O)N2C[C@H]3C[C@@]34C2=CC(=O)c2[nH]cc(C)c24)n(COC)c1`, for which the GI50 in the assay on 786-0 is 0.149 µM (active); in the assay with A498, 0.741 µM (active); with CAKI-1, 0.215 µM (active); in the assay on HOP-92 it was 0.245 µM (active); in the assay with LOX IMVI, 0.12 µM (active); with M14, 0.662 µM (active). Moreover, the GI50 was 0.0303 µM (active) with MCF7; 0.582 µM (active) in the assay on MDA-N; 0.0743 µM (active) with NCI-H23; 0.0853 µM (active) in the assay with OVCAR-3; 0.745 µM (active) in the assay with PC-3; 1.29 µM (inactive) in the assay on SK-OV-3. Further, the GI50 is 0.00516 µM (active) with SR; 0.0169 µM (active) in the assay with SW-620; 0.556 µM (active) in the assay on TK-10; 0.114 µM (active) in the assay with U-251; 0.843 µM (active) in the assay with UO-31.
Consider `CSCCCCCCCCCCOc1ccc(C=C2C(=C(C#N)C#N)c3ccccc3C2=C(C#N)C#N)cc1`, for which the GI50 in the assay on 786-0 is 17.5 µM (inactive); in the assay with A498 it was 17 µM (inactive); in the assay on CAKI-1, 17.1 µM (inactive); with HOP-92, 11.7 µM (inactive); in the assay on LOX IMVI, 23.5 µM (inactive); in the assay on M14, 17.9 µM (inactive). Further, the GI50 is 14.5 µM (inactive) with MCF7; 18.3 µM (inactive) in the assay on MDA-N; 22.1 µM (inactive) in the assay on NCI-H23; 16.4 µM (inactive) in the assay on OVCAR-3; 17.6 µM (inactive) in the assay with PC-3; 17.6 µM (inactive) in the assay with SK-OV-3. For the same molecule, the GI50 with SR is 15 µM (inactive); with SW-620, 17.8 µM (inactive); with TK-10, 19.4 µM (inactive); with U-251, 17.5 µM (inactive); with UO-31, 16.3 µM (inactive).
`CC1=CC(=O)N(n2c(C)n[nH]c2=O)C1=O`: the GI50 in the assay on 786-0, in the assay on A498, in the assay on CAKI-1, in the assay with HOP-92, in the assay on LOX IMVI and in the assay on M14 was > 100 µM (inactive) each time. The GI50 in the assay on MCF7, in the assay with MDA-N, with NCI-H23, in the assay with OVCAR-3, with PC-3 and with SK-OV-3 was > 100 µM (inactive) each time. Also, the GI50 in the assay with SR, with SW-620, in the assay with TK-10, in the assay on U-251 and with UO-31 was > 100 µM (inactive) each time.
